What all share (assay type): cell-based
One experiment concerns MDA-MB-435 cells. Put plainly: In vitro tumor cell growth inhibition (cytotoxicity assay), breast cancer cell line. As to conditions: MDA-MB-435 breast cancer cells. Here is the method: (§1) Cytotoxicity may be measured using a standard methodology for adherent cell lines such as the microculture tetrazolium assay (MTT). Details of this assay have been published (Alley, M C et al, Cancer Research 48:589-601, 1988). Exponentially growing cultures of tumor cells such as the HT-29 colon carcinoma or LX-1 lung tumor can be used to make microtiter plate cultures. Cells can be seeded at 5000-20,000 cells per well in 96-well plates (in 150 μl of media), and grown overnight at 37° C. Test compounds are added, in 10-fold dilutions varying from 10^−4 M to 10^−10 M.
(§2) Cells are then incubated for 48-72 hours. To determine the number of viable cells in each well, the MTT dye is added (50 μl of 3 mg/ml solution of 3-(4,5-dimethylthiazol-2-yl)-2,5-diphenyltetrazolium bromide in saline). This mixture is incubated at 37° C. for 5 hours, and then 50 μl of 25% SDS, pH 2 is added to each well. After an overnight incubation, the absorbance of each well at 550 mn is read using an ELISA reader. The values for the mean+/−SD of data from quadruplicate wells are calculated, using standard formula as for the %T/C (%viable cells treated/control). Additional methods as described by Inhibition of the growth of tumor cells was determined as described by Patil, S. D., et al J. Med. Chem., 32, 1284 (1989) may be used as well.
(§3) The concentration of test compound which gives a T/C of 50% growth inhibition is designated as the IC50.
(§4) Typically, the cells are grown in RPMI 1640 medium supplemented with 10 nM calcium leucovorin instead of folic acid as the folate source, 10% dialyzed fetal calf serum, penicillin and streptomycin. Additional ingredients may be added depending on the particular needs of the cells being cultured. […]
(§5) Cells are seeded into 96-well plates using a pipeting mechanism such as Perkin-Elmer Pro/pette. […] Inhibition of cell growth may be measured using the MTT dye reduction assay as described above.

Experiment [1] relates to OVCAR-4 ovarian carcinoma cell lines. Briefly: In vitro tumor cell growth inhibition (cytotoxicity assay), ovarian carcinoma cell line. The settings on record: OVCAR-4 ovarian carcinoma cells. As for the experimental part: as §1, §2, §3, §4, §5
Experiment [2] concerns CAKI-1 renal cancer cell lines. Put plainly: In vitro tumor cell growth inhibition (cytotoxicity assay), renal cancer cell line. The settings on record: CAKI-1 renal cancer cells. Here is the method:
as §1, §2, §3, §4, §5

Experiment [3] has as its system KM12 colon cancer cell lines. Briefly: In vitro tumor cell growth inhibition (cytotoxicity assay), colon cancer cell line. The settings on record: KM12 colon cancer cells. Here is the method:
as §1, §2, §3, §4, §5

The mark [4] stands for this setting: Homo sapiens, read-out: LC50 (the source's name).

Broadly, the GI50 is the concentration at which growth is held to half of that of the control. With `Cl.OCC1OC(NCCNCCNC2OC(CO)C(O)C(O)C2O)C(O)C(O)C1O` [Compound 1, 1,3-N,N-di-β-D-glucopyranosyl-diethylenetriamine], the GI50 in the experiment with MDA-MB-435 cells (Homo sapiens, read-out: GI50 (inhibited growth by 50%)) is 1.72 µM; in experiment [1] (Homo sapiens), 1.63 µM; in experiment [2] (Homo sapiens), 3.1 µM; in experiment [3] (Homo sapiens), approximately 10 µM. In addition, in the experiment on MDA-MB-435 cells (Homo sapiens, read-out: LC50 (lethal concentration to kill 50% of the cells)), the LC50 was approximately 6 µM. For the same compound, the “Total growth inhibition (TGI)” value with MDA-MB-435 cells came out at 3.23 µM. In addition, the CC50 is approximately 7.7 µM in experiment [1] (setting [4]), 30 µM in experiment [2] (setting [4]) and approximately 48 µM in experiment [3] (setting [4]). For the same compound, the TGI entry was “about 3.5 μM” in experiment [1], “about 10 μM” in experiment [2] and “about 22 μM” in experiment [3].

Values taken from patent US6531454B1, “Glycosylated polyamines and methods of use therefor” (The Regents of the University of California, priority 1999, dated 2003).
